Assay results published in publication PMC5336470, “Insights into the mechanism of membrane pyrophosphatases by combining experiment and computer simulation” (Structural Dynamics, 2017).

Molecular target: T1, VrPPase (Vigna radiata, UniProt P21616)
T1 construct: VrPPase reconstituted into liposomes (proteoliposomes); homodimer
T1 sequence (P21616 2-766): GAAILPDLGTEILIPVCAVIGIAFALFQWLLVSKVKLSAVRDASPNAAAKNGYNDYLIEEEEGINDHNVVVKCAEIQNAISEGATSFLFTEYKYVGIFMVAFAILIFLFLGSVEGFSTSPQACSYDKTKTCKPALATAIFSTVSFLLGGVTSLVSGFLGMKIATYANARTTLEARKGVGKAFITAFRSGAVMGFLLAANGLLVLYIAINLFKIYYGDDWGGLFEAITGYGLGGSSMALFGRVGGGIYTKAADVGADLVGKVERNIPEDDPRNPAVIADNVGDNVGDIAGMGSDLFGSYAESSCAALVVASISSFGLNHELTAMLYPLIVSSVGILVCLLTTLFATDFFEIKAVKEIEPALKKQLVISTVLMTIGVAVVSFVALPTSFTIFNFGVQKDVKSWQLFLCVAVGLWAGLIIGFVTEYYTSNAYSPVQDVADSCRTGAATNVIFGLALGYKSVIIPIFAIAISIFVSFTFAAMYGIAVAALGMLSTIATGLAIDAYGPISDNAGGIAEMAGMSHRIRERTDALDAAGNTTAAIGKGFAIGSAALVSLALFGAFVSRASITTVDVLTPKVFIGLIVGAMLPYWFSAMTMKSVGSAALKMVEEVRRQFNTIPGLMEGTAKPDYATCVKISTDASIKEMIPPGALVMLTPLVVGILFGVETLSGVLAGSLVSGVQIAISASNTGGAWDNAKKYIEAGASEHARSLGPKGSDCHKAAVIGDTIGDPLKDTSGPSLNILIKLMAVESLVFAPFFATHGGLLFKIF
Assay: SURFE2R N1 electrometric proton-pumping current, proteoliposomes
Format: biochemical
Conditions: 200 uM K2HPO4 as control, 10 uM CCCP as protonophore control

## O=P(O)(O)NP(=O)(O)O [imidodiphosphate]
50 uM IDP, non-hydrolysable substrate analogue
  SURFE2R N1 electrometric proton-pumping current, proteoliposomes: IDP-bound VrPPase specifically pumps protons

## O=P(O)(O)CP(=O)(O)O [methylene diphosphonate]
50 uM MEDP, non-hydrolysable substrate analogue
  SURFE2R N1 electrometric proton-pumping current, proteoliposomes: VrPPase in the presence of another substrate analogue, methylene diphosphonate (MEDP), similarly produces a change

## O=P(O)(O)OP(=O)(O)O [pyrophosphate]
50 uM K4PPi
  SURFE2R N1 electrometric proton-pumping current, proteoliposomes: Addition of CCCP to membrane-embedded VrPPase in the presence of PPi reduces the ion-pumping current
